According to US20110306665A1, “COSMETIC PREPARATION, METHOD FOR PRODUCING SAME, COMPOSITION FOR COSMETIC PREPARATIONS, COSMETIC PREPARATION CONTAINING THE COMPOSITION FOR COSMETIC PREPARATIONS AND METHOD FOR PRODUCING SAME, AND CLEANSER FOR INDUSTRIAL USE” (The Nisshin OilliO Group, Ltd., priority 2009, published 2011):

How the values were obtained:
[1] = Moisturizing properties of cosmetic preparation compositions (massage oil, panel); type: in vivo, human; design: key: Good: Very soft and moistened touch was felt.; Moderate: Soft and moistened touch was felt.; Poor: No moistened touch was felt; details: neat cosmetic preparation composition (massage oil); 0.05 g, rubbed twenty times, wiped; seven panelists
Protocol: In Example 12, the PDO diisostearate obtained from Synthesis Example 1 was used as a cosmetic preparation composition (moisturizing ingredient) for a moisturizing cosmetic preparation (massage oil), and the moisturizing properties and the feeling of use thereof were evaluated.
The insides of the arms of seven panelists were washed with soap and water, and in addition, the washed surfaces were wiped with ethanol and naturally dried. Thereafter, each of the thus washed surfaces was evenly divided into eight equal areas, to which 0.05 g of the respective cosmetic preparation compositions of Example 12, and Comparative Examples 4 to 7 and 4A to 4C, was applied and massage was done by gently rubbing with a finger twenty times. Thereafter, the area was wiped with a dry cloth. On completion of this wiping, the moisturizing properties and the feeling of use of the respective cosmetic preparation compositions were evaluated in accordance with the same criteria as those of the moisturizing gels of Examples 6 to 8 mentioned above.

[2] = Viscosity by stress-controlled rheometer at 20° C.; type: physicochemical
Protocol: (§1) Next, the viscosity and the friction coefficient of the cosmetic preparation compositions of Example 12 and Comparative Examples 4 to 7 and 4A to 4C were measured.
The viscosity was measured by using a stress-controlled rheometer (Product No. RheoStress RS1, with a C60/2 Ti sensor, a product of Haake Company) at 20° C.

[3] = Friction coefficient on artificial leather (friction tester); type: physicochemical; details: 5 μL on artificial leather, pressure of 100 g
Protocol: as §1
The friction coefficient was measured by such a way that: 5 μL of each cosmetic preparation composition was applied to the surface of an artificial leather (Product Name: Supplale, a product of Idemitsu Technofine Co., Ltd.), and the applied surface was measured for the friction coefficient and the change in the value of the friction coefficient, by using a friction tester (Type: TL201Ts, a product of Trinity-Lab Co., Ltd.) with a pressure of 100 g.

[4] = Low irritation properties: 24 hours airtight application with Finn Chamber (panel); type: in vivo, human
Protocol: Moreover, the low irritation properties of the respective cosmetic preparation compositions as an ink remover ingredient were evaluated in the following manner. The insides of the arms of seven panelists were washed with soap and water, and in addition, the washed surfaces were wiped with ethanol and naturally dried. Next, each of the thus washed surfaces was evenly divided into seven equal areas, to which 0.01 g of the respective cosmetic preparation compositions of Examples 13 and 13A to 13D, and Comparative Examples 8 and 9, was applied airtightly by using Finn Chamber (a product of Epitest Ltd Oy). After 24 hours, the Finn Chamber and the cosmetic preparation compositions were taken off. After 1 hour, the condition of the skin was observed. The low irritation properties of the respective cosmetic preparation compositions as an ink remover ingredient were evaluated in accordance with the following criteria. <Evaluation Criteria of Low Irritation Properties> Good: No change was found in the skin of the airtightly applied part. Moderate: A slight rash was found in the skin of the airtightly applied part.

[5] = Cleansing properties: removal of ink of an oil paint pen from the skin (panel); type: in vivo, human; details: black oil paint pen line on inside of arm, rubbed thirty times at about 200 g; seven panelists
Protocol: In Example 13, the cleansing properties and the low irritation properties of the PDO-C8/C10 diester obtained from Synthesis Example 2 as a cosmetic preparation composition for a cosmetic preparation to be used for the purpose of removing an ink of an oil paint pen (ink remover ingredient) from the skin, were evaluated. The insides of the arms of seven panelists were washed with soap and water, and in addition, the washed surfaces were wiped with ethanol and naturally dried. Thereafter, using a black oil paint pen (Product Name: […] product of Zebra Co., Ltd.), a line was painted respectively on the washed surfaces of the insides of their arms. Next, the painted line was evenly divided into seven equal areas. […] From the proportion of the line painted with the oil paint pen which had been able to be removed by this removal operation, the cleansing properties of the respective cosmetic preparation compositions as an ink remover ingredient were evaluated in accordance with the following criteria. The results of their averages are shown in Table 14. <Evaluation Criteria of Cleansing Properties> Excellent: High cleansing properties, meaning that a proportion of 75 to 100% in the line painted with the oil paint pen was able to be removed. Good: Relatively high cleansing properties, meaning that a proportion of 50 to 75% in the line painted with the oil paint pen was able to be removed. Moderate: Some cleansing properties, meaning that only a proportion of 25 to 50% in the line painted with the oil paint pen was able to be removed. Poor: Weak cleansing properties, meaning that only a proportion of 0 to 25% in the line painted with the oil paint pen was able to be removed.

[6] = Cleansing properties of industrial use cleansers: oil paint pen ink on coated steel panel; details: industrial use cleanser; black oil paint pen line on coated steel panel, rubbed thirty times at about 200 g
Protocol: The cleansing properties of the respective industrial use cleansers as an agent to remove an oil soluble colorant from a coated steel panel were evaluated in the following manner.
First, an electro-galvanized steel panel was coated with commercially available automotive paints, namely, a primer surfacer (Product Name: Primer White (a product of Musashi Holt Co., Ltd.)), a white automotive paint (Product Name: Antirust Paint (Color No. 041) (a product of Musashi Holt Co., Ltd.)), and a clear paint (Product Name: Topcoat Clear (a product of Musashi Holt Co., Ltd.)), by spraying according to the usage instruction of each product, and dried at 25° C. for 24 hours. By so doing, a coated steel panel for the test was obtained.
Next, using a black oil paint pen (Product Name: Mckee Care, a product of Zebra Co., Ltd.), a line was painted on the surface of the coated steel panel, and dried at 25° C. for 24 hours.
Subsequently, the painted line was evenly divided into seven equal areas. Each area was rubbed with an absorbent cotton that had been impregnated with, but to a degree which would not allow a leakage of, the industrial use cleanser of Examples 14, 14A, and 14B, or the oil agent of Comparative Examples 10, 11, 11A, and 11B, while loading a pressure of about 200 g in a reciprocating manner thirty times. From the proportion of the ink of the line painted with the oil paint pen which had been able to be removed by this removal operation, the cleansing properties of the respective industrial use cleansers of Examples 14, 14A, and 14B, or the respective oil agents of Comparative Examples 10, 11, 11A, and 11B, as the agent to remove the oil soluble colorant, were evaluated by eye in accordance with the following criteria.
<Evaluation Criteria of Cleansing Properties>
Excellent: High cleansing properties, meaning that a proportion of 75 to 100% in the line painted with the oil paint pen on the coated steel panel was able to be removed.
Good: Relatively high cleansing properties, meaning that a proportion of 50 to 75% in the line painted with the oil paint pen on the coated steel panel was able to be removed.
Moderate: Some cleansing properties, meaning that only a proportion of 25 to 50% in the line painted with the oil paint pen on the coated steel panel was able to be removed.
Poor: Weak cleansing properties, meaning that only a proportion of 0 to 25% in the line painted with the oil paint pen on the coated steel panel was able to be removed.
The cleansing properties and the low corrosion properties of the respective industrial use cleansers as an agent to remove an oil soluble colorant for a coated steel panel were evaluated in the same manner as those of the industrial use cleanser in Example 14. […]

[7] = Oxidative stability by conductometric determination method (CDM, Rancimat); type: physicochemical; details: 3 g, 120° C., air flow 8 L/h
Protocol: Furthermore, the oxidative stability was compared between the cosmetic preparation compositions of Example 12 and Comparative Example 4. Specifically speaking, these cosmetic preparation compositions were evaluated for the oxidative stability by a conductometric determination method (CDM method). […] A greater increase in the conductivity per unit time means a lower oxidative stability of the cosmetic preparation composition. Conversely, a smaller increase in the conductivity per unit time means a higher oxidative stability of the cosmetic preparation composition. The conductivity was measured by using a rancimat instrument (Type: Rancimat 743, a product of Metrohm-Sibata Ltd.) in a condition where 3 g of the sample was examined under heating at 120° C. with an air flow rate of 8 L/h.

[8] = 0.01 g airtight in Finn Chamber 24 hours, skin observed 1 hour after removal, seven panelists

Viscosity (mPa · s) (20° C.) [2]	Changed value of friction coefficient [3]	Friction coefficient [3]	Compound	Moisturizing properties [1]	Low irritation properties [4, 8]	Cleansing properties [5]	Cleansing properties [6]	other results
Not measurable			CCCCCCCCCCCCCCCCCC(=O)OCCCOC(=O)CCCCCCCCCCCCCCCCC [Comparative Example 4A, PDO distearate]	Moderate				
1003 mPa · s	0.0080	0.170	CC(CCC(C(=O)OCCCOC(=O)C(CCC(C)CC(C)(C)C)C(C)CC(C)(C)C)C(C)CC(C)(C)C)CC(C)(C)C (centres unmarked) [Comparative Example 4B]	Good				
36.0 mPa · s	0.0062	0.155	CC(C)CCCC(C)CCCC(C)CCCCC(C)CCCC(C)CCCC(C)C (centres unmarked) [Comparative Example 5, squalane]	Good				
			CC(C)CCCCCCOC(=O)CCCCCC(C)C [Comparative Example 8, isononyl isononanoate, reference compound]		Poor	Good (Relatively high cleansing properties, meaning that a proportion of 50 to 75% in the line painted with the oil paint pen was able to be removed.)		Condition of the skin of the airtightly applied part ([4]; 0.01 g airtight in Finn Chamber 24 hours, skin observed 1 hour after removal): a notable rash was found
			CCO [Comparative Example 10, ethanol, reference compound]				Excellent (High cleansing properties, meaning that a proportion of 75 to 100% in the line painted with the oil paint pen on the coated steel panel was able to be removed.)	
			CCCCCCCC(=O)OCCCOC(=O)CCCCCCC [Example 13A, PDO-di-n-Octanoic Acid Ester]		Moderate	Excellent (High cleansing properties, meaning that a proportion of 75 to 100% in the line painted with the oil paint pen was able to be removed.)	Excellent (High cleansing properties, meaning that a proportion of 75 to 100% in the line painted with the oil paint pen on the coated steel panel was able to be removed.)	
			CCCCCCCCCC(=O)OCCCOC(=O)CCCCCCCCC [Example 13D, PDO-di-n-decanoic acid ester]			Poor (Weak cleansing properties, meaning that only a proportion of 0 to 25% in the line painted with the oil paint pen was able to be removed.)	Poor (Weak cleansing properties, meaning that only a proportion of 0 to 25% in the line painted with the oil paint pen on the coated steel panel was able to be removed.)	Low irritation properties ([4]; in vivo): Good
			PDO-C8/C10 diester [Example 13]		Good	Excellent (High cleansing properties, meaning that a proportion of 75 to 100% in the line painted with the oil paint pen was able to be removed.)	Excellent (High cleansing properties, meaning that a proportion of 75 to 100% in the line painted with the oil paint pen on the coated steel panel was able to be removed.)	
			PDO-C8/C10=25:75 diester [Example 13C]		Good	Moderate (Some cleansing properties, meaning that only a proportion of 25 to 50% in the line painted with the oil paint pen was able to be removed.)	Moderate (Some cleansing properties, meaning that only a proportion of 25 to 50% in the line painted with the oil paint pen on the coated steel panel was able to be removed.)	
			PDO-C8/C10=50:50 diester [Example 13B]		Good	Good (Relatively high cleansing properties, meaning that a proportion of 50 to 75% in the line painted with the oil paint pen was able to be removed.)	Good (Relatively high cleansing properties, meaning that a proportion of 50 to 75% in the line painted with the oil paint pen on the coated steel panel was able to be removed.)	
57.5 mPa · s	0.0056	0.147	PDO-Garbett isostearic acid diester [Comparative Example 4C]	Poor				

Compound	Viscosity (mPa · s) (20° C.) [2]	Changed value of friction coefficient [3]	Friction coefficient [3]	Moisturizing properties [1]	Low irritation properties [4, 8]	Cleansing properties [5]	Cleansing properties [6]	other results
PDO diisostearate [Example 12]	80.0 mPa · s	0.0045	0.140	Good				Conductivity (CDM method) after 5 hours ([7]; after 5 hours): 17 μS/cm; Conductivity (CDM method) after 10 hours ([7]; after 10 hours): 45 μS/cm; Conductivity (CDM method) after 15 hours ([7]; after 15 hours): 83 μS/cm; Conductivity (CDM method) after 20 hours ([7]; after 20 hours): 127 μS/cm
